PMC3705412, “PTP1B Inhibitory and Anti-Inflammatory Effects of Secondary Metabolites Isolated from the Marine-Derived Fungus Penicillium sp. JF-55” (Marine Drugs, 2013)

How the values were obtained:
[1] = biological target: T1, PTP1B (human, recombinant) (Homo sapiens, UniProt P18031); test: PTP1B assay (pNPP hydrolysis); assay type: biochemical
T1 construct: purchased BIOMOL Research Laboratories, Inc
T1 sequence (P18031 1-435): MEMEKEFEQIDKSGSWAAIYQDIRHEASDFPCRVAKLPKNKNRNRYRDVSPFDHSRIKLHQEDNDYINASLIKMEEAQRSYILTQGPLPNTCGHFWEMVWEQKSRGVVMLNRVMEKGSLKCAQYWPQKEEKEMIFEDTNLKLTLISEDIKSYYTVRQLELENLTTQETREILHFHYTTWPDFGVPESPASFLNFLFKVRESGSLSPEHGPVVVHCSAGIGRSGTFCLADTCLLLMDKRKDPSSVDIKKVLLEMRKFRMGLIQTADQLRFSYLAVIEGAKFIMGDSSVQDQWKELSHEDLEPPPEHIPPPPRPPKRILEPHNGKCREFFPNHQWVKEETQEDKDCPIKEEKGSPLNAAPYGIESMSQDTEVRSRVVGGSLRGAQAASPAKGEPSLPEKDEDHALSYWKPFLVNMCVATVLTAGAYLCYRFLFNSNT
Procedure: PTP1B (human, recombinant) was purchased from BIOMOL Research Laboratories, Inc. Enzyme activity was measured in a reaction mixture containing 2 mM p-nitrophenyl phosphate (pNPP) in 50 mM citrate, pH 6.0 (composition: 0.1 M NaCl, 1 mM EDTA, and 1 mM dithiothreitol (DTT)). The reaction mixture was placed in an incubator maintained at 30 °C for 30 min, and the reaction was terminated by the addition of 1 N NaOH. The amount of p-nitrophenol produced was estimated by measuring the increase in absorbance at 405 nm. The nonenzymatic hydrolysis of 2 mM pNPP was corrected by measuring the increase in absorbance at 405 nm in the absence of PTP1B enzyme. For the kinetic analysis, the reaction mixture consisted of different concentrations of pNPP as a PTP1B substrate in the absence or presence of compound 1, and assays were performed as described above. The Michaelis-Menten constant (Km) and maximum velocity (Vmax) of PTP1B were determined by the Lineweaver-Burk plot using a GraphPad Prism® 4 program (GraphPad Software Inc., San Diego, CA, USA).

[2] = test system: HO-1; test: Western blotting of HO-1 protein expression in macrophages; assay type: cell-based, murine (C57BL/6 mice)
Procedure: Figure 6 The effects of penstyrylpyrone (1) on the protein expression of HO-1 in murine peritoneal macrophages. Murine peritoneal macrophages were incubated for 12 h with the indicated concentrations of penstyrylpyrone (1). […] Representative blots of three independent experiments are shown. The data represent the mean ± SD of three experiments. * p < 0.05 compared with the control group.
(§1) C57BL/6 mice were purchased from Orient Bio Co. (Sungnam, Kyung-Kido, Korea). TG-elicited peritoneal macrophages were harvested four days after intraperitoneal (i.p.) injection of 3 mL of TG [37]. Peritoneal lavage was performed using 8 mL of Hanks’ Balanced Salt Solution containing 10 U/mL heparin. The cells were distributed in Roswell Park Memorial Institute medium (RPMI) supplemented with 10% heat-inactivated FBS, in 6-well tissue culture plates (5 × 10^6 cells/mL).
Western blotting analysis was performed by lysing the cells in 20 mM Tris-HCl buffer (pH 7.4) containing a protease inhibitor mixture (0.1 mM PMSF, 5 mg/mL aprotinin, 5 mg/mL pepstatin A, and 1 mg/mL chymostatin). The protein concentration was determined using a Lowry protein assay kit (P5626; Sigma Chemical Co., St. Louis, MO, USA). An equal amount of protein for each sample was resolved using 12% sodium dodecyl sulfate-polyacrylamide gel electrophoresis (SDS-PAGE) and then electrophoretically transferred onto a Hybond enhanced chemiluminescence (ECL) nitrocellulose membrane (Bio-Rad, Hercules, CA, USA). The membrane was blocked with 5% skimmed milk and sequentially incubated with primary antibody (Santa Cruz Biotechnology, Santa Cruz, CA, USA) and horseradish peroxidase-conjugated secondary antibody followed by ECL detection (Amersham Pharmacia Biotech, Piscataway, NJ, USA).

[3] = test system: iNOS-derived NO production in murine peritoneal macrophages; test: Nitrite (NO) production in LPS-stimulated macrophages, Griess reaction; assay type: cell-based, murine (C57BL/6 mice); details: Mus musculus, Peritoneal macrophage; pre-treated 12 h, LPS 1 μg/mL 18 h
Procedure: The expression of pro-inflammatory enzymes, including COX-2 and iNOS, plays an important role in immune-activated macrophages via the production of COX-2-derived PGE2 and iNOS-derived NO [20, 21]. To investigate the effects of compounds on iNOS-derived NO and COX-2-derived PGE2 production, and iNOS and COX-2 expression in LPS-stimulated macrophages, murine peritoneal macrophages were stimulated with LPS (1 μg/mL) for 18 h in the presence or absence of non-cytotoxic concentrations of compounds 1–3 (Figure S1). […] The finding that penstyrylpyrone (1) suppressed LPS-induced pro-inflammatory mediators, such as NO, PGE2, iNOS, and COX-2, led further investigation of the effects of penstyrylpyrone (1) on LPS-induced TNF-α and IL-1β production, which are other pro-inflammatory mediators.
as §1
The production of nitrite, a stable end product of NO oxidation, was used as a measure of iNOS activity. The nitrite present in the conditioned medium was determined using a method based on the Griess reaction.

[4] = test system: TNF-α production in murine peritoneal macrophages; test: TNF-α production in LPS-stimulated macrophages, ELISA; assay type: cell-based, murine (C57BL/6 mice); details: Mus musculus, Peritoneal macrophage; pre-treated 12 h, LPS 1 μg/mL 18 h
Procedure: C57BL/6 mice were purchased from Orient Bio Co. (Sungnam, Kyung-Kido, Korea). TG-elicited peritoneal macrophages were harvested four days after intraperitoneal (i.p.) injection of 3 mL of TG [37]. Peritoneal lavage was performed using 8 mL of Hanks’ Balanced Salt Solution containing 10 U/mL heparin. The cells were distributed in Roswell Park Memorial Institute medium (RPMI) supplemented with 10% heat-inactivated FBS, in 6-well tissue culture plates (5 × 10^6 cells/mL). The level of PGE2, TNF-α or IL-1β present in each sample was determined using a commercially available kit from R & D Systems. The assay was performed according to the manufacturer’s instructions. Briefly, murine peritoneal macrophages were cultured in 24-well plates, pre-incubated for 12 h with different concentrations of compounds 1–3, and then stimulated for 18 h with LPS. The cell culture supernatants were then immediately collected after treatment and centrifuged at 13,000× g for 2 min to remove particulate matter. The medium was added to a 96-well plate pre-coated with affinity-purified PGE2-specific polyclonal antibodies or the medium was added to a 96-well plate pre-coated with affinity-purified polyclonal antibodies that were specific to mouse TNF-α or IL-1β. An enzyme-linked polyclonal antibody specific for PGE2, mouse TNF-α or IL-1β was added to the wells for 20 h, followed by a final wash to remove any unbound antibody-enzyme reagent. A substrate solution was added, and the intensity of the color produced, which was measured at 450 nm (the correction wavelength was set at 540 nm or 570 nm), was proportional to the amount of PGE2, TNF-α or IL-1β present.

IC50 ([1]; 2 mM pNPP, pH 6.0, 30 °C, 30 min, read-out: PTP1B inhibitory activity IC50): 5.28 µM
Mode of PTP1B inhibition (Lineweaver-Burk, non-linear regression) ([1]; different concentrations of pNPP): competitive
IC50 [3]: 12.3 µM
IC50 [4]: 18.3 µM
SMILES: COc1cc(/C=C/c2ccccc2)oc(=O)c1C [Penstyrylpyrone (1), penstyrylpyrone]
Time at which HO-1 protein expression began to increase ([2]; 40 μM): 6 h
Time of maximum level of HO-1 protein expression ([2]; 40 μM): 18 h
HO-1 protein expression ([2]; 5–40 μM for 12 h): concentration-dependent increase
Concentration giving a considerable increase in HO-1 expression ([2]; 12 h): above 10 μM
